In patent US20020081574A1, “Methods for identifying inhibitors of helicase C virus” (priority 1996, published 2002):

Assays:
HCV = conditions: cited from earlier work
HCV NS3 RNA helicase = target: T1, HCV NS3 RNA helicase (Hepatitis C virus genotype 1a, UniProt P27958); format: biochemical; conditions: for helicase activity levels reduced when substituting for Mn^+2: divalent cation tested at 3 mM
T1 construct: derived from the full length, native polypeptide (residues 1027-1657); made in house; host or cells: Spodoptera frugiperda Sf9 cells, recombinant baculovirus bacNS3-5B (polyprotein residues 1027-3011 expressed and processed)
T1 sequence (P27958 1027-1657): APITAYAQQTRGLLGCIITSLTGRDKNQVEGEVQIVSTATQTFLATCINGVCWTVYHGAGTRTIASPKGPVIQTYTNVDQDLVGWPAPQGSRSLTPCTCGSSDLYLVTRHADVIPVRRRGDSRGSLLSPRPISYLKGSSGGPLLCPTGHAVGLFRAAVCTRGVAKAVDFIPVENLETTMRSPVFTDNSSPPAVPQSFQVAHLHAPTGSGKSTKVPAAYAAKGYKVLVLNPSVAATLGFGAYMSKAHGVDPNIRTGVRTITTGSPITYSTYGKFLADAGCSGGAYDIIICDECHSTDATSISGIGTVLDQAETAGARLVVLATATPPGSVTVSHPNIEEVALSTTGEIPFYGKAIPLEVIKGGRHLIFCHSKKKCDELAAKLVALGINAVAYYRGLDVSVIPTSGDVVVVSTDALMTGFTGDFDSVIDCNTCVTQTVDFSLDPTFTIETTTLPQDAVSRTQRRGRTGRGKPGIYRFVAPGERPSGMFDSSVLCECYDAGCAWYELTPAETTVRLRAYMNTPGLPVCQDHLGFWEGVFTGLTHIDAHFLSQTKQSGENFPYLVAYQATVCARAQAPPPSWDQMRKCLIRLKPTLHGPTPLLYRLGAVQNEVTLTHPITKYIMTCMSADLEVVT

Molecule	helicase activity levels reduced when substituting for Mn^+2 (HCV NS3 RNA helicase)	effect of monovalent cations on HCV NS3 helicase activity (HCV NS3 RNA helicase)	other results
interferon alpha [IFN-α]	–	–	improved serum liver enzyme response (HCV; IFN treatment): 20-40 % of patients; sustained improvement of aminotransferase levels (HCV; responders): 10-20 % of patients
[Cu+2] [Cu^+2]	7 fold	–	–
[Zn+2] [Zn^+2]	2 fold	–	–
[Ca+2] [Ca^+2]	3 fold	–	–
[Na+] [Na^+]	–	inhibit	–
[K+] [K^+]	–	inhibit	–
